Source: patent US20230192677A1, “CYP11A1 INHIBITORS” (ORION CORPORATION, priority 2020, published 2023)

target: T1, CYP11A1 (Homo sapiens, UniProt P05108); assay: CYP11A1 inhibition, isocaproic acid release assay (IARA) in H295R cells; assay type: cell-based; conditions: human H295R adrenocortical carcinoma cell line, three days, 3 nM [24,25-3H]-labelled cholesterol; read-out: IC50 on CYP11A1 inhibition (Group)
T1 construct: human H295R adrenocortical carcinoma cell line was used as source of enzyme; endogenous in cells; host or cells: H295R human adrenocortical carcinoma cells
T1 sequence (P05108 40-521): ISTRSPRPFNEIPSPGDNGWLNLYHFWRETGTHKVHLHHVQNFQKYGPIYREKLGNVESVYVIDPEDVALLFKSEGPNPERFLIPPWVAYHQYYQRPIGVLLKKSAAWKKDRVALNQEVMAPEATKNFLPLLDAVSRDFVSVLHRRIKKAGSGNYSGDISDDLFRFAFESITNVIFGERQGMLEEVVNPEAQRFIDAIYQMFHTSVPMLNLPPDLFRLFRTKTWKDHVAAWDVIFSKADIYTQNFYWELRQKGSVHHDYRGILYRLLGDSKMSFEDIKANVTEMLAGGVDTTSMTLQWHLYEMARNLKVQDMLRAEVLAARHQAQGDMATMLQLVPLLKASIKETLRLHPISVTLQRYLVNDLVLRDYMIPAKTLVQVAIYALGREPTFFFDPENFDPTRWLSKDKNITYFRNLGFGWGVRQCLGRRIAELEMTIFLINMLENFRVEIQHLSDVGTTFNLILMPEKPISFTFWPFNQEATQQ
Experimental: The ability of the test compounds to inhibit conversion of cholesterol to pregnenolone and isocaproic acid was measured by modification of isocaproic acid release assay (IARA) described by Ruangwises et al. (Biology of Reproduction 1991; 45(1):143-50) except that human H295R adrenocortical carcinoma cell line was used as source of enzyme and extraction was done with dextran-coated charcoal suspension (Isomaa, V. et al., Endocrinology 1982; 111(3):833-843). […] To determine the half maximal inhibitory concentration (IC50) of the test compounds on CYP11A1 inhibition, the cells were treated for three days with increasing concentrations of the test compounds in the presence of 3 nM [24,25-3H]-labelled cholesterol (American Radiolabelled Chemicals). The final DMSO concentration was 1%. Cell culture medium was extracted with dextran-coated charcoal suspension and the radiolabelled isocaproic acid was determined by mixing 100 μl of supernatant fraction in 200 μl of scintillation fluid (OptiPhase SuperMix, Perkin Elmer). Radioactivity was measured using a Microbeta scintillation counter (1450 MicroBeta Trilux, Wallac). All the test compounds were studied at 10 concentrations in duplicates.

IC50, 201 to 2000 nM:
CC(C)(C)OC(=O)N1CCC2(CC1)CC(COc1coc(CN3CCc4ccccc4C3)cc1=O)C2 [Compound 35, tert-Butyl 2-(((6-((3,4-dihydroisoquinolin-2(1H)-yl)methyl)-4-oxo-4H-pyran-3-yl)oxy)methyl)-7-azaspiro[3.5]nonane-7-carboxylate]
O=c1cc(CN2CCc3ccccc3C2)occ1OCC1CC2(C1)CN(c1ncccn1)C2 [Compound 50, 2-((3,4-Dihydroisoquinolin-2(1H)-yl)methyl)-5-((2-(pyrimidin-2-yl)-2-azaspiro-[3.3]heptan-6-yl)methoxy)-4H-pyran-4-one]
N#Cc1ccc(N2CC3(CC(COc4coc(CN5CCc6ccccc6C5)cc4=O)C3)C2)nc1 [Compound 51, 6-(6-(((6-((3,4-Dihydroisoquinolin-2(1H)-yl)methyl)-4-oxo-4H-pyran-3-yl)oxy)-methyl)-2-azaspiro[3.3]heptan-2-yl)nicotinonitrile]
O=c1cc(CN2CCc3ccccc3C2)occ1OC1CC2(CCN(S(=O)(=O)c3cccnc3)CC2)C1 [Compound 54, 2-((3,4-Dihydroisoquinolin-2(1H)-yl)methyl)-5-((7-(pyridin-3-ylsulfonyl)-7-azaspiro[3.5]nonan-2-yl)oxy)-4H-pyran-4-one]
CS(=O)(=O)N1CC2(CC(COc3coc(CN4CCc5ccccc5C4)cc3=O)C2)C1 [Compound 62, 2-((3,4-Dihydroisoquinolin-2(1H)-yl)methyl)-5-((2-(methylsulfonyl)-2-azaspiro[3.3]heptan-6-yl)methoxy)-4H-pyran-4-one]
CS(=O)(=O)c1cc(CN2Cc3ccccc3C2)ccc1OCC1CCOCC1 [Compound 83, 2-(3-(Methylsulfonyl)-4-((tetrahydro-2H-pyran-4-yl)methoxy)benzyl)isoindoline]
CC(=O)N1CCC(COc2ccc(CN3Cc4ccccc4C3)cc2S(C)(=O)=O)CC1 [Compound 87, 1-(4-((4-(Isoindolin-2-ylmethyl)-2-(methylsulfonyl)phenoxy)methyl)piperidin-1-yl)ethan-1-one]

IC50, 101 to 200 nM:
O=c1cc(CN2CCc3ccccc3C2)occ1OCC1CC2(CCN(c3ncccn3)CC2)C1 [Compound 48, 2-((3,4-Dihydroisoquinolin-2(1H)-yl)methyl)-5-((7-(pyrimidin-2-yl)-7-azaspiro-[3.5]nonan-2-yl)methoxy)-4H-pyran-4-one]
O=c1cc(CN2CCc3ccccc3C2)occ1OCC1CC2(C1)CN(S(=O)(=O)c1ccc(F)cc1)C2 [Compound 58, 2-((3,4-Dihydroisoquinolin-2(1H)-yl)methyl)-5-((2-((4-fluorophenyl)sulfonyl)-2-azaspiro[3.3]heptan-6-yl)methoxy)-4H-pyran-4-one]
CCC(=O)N1CCC(COc2ccc(CN3Cc4ccccc4C3)cc2S(C)(=O)=O)CC1 [Compound 70]
CS(=O)(=O)c1cc(CN2Cc3ccccc3C2)ccc1OCC1CCC(C(=O)N2CCC2)CC1 (stereo not drawn) [Compound 80, Azetidin-1-yl(4-((4-(isoindolin-2-ylmethyl)-2-(methylsulfonyl)phenoxy)-methyl)cyclohexyl)methanone]
CS(=O)(=O)c1ccc(COc2ccc(CN3Cc4ccccc4C3)cc2S(C)(=O)=O)cc1F [Compound 81, 2-(4-((3-Fluoro-4-(methylsulfonyl)benzyl)oxy)-3-(methylsulfonyl)benzyl)-isoindoline]
CO/N=C(\C)c1ccc2c(c1)CN(Cc1cc(=O)c(OCC3CCN(S(C)(=O)=O)CC3)co1)C2 [Compound 91, (E)-2-((5-(1-(Methoxyimino)ethyl)isoindolin-2-yl)methyl)-5-((1-(methylsulfonyl)piperidin-4-yl)methoxy)-4H-pyran-4-one]

IC50, < 100 nM:
CS(=O)(=O)c1cc(CN2Cc3ccccc3C2)ccc1OCC1CCN(S(C)(=O)=O)CC1 [Compound 65, 2-(3-(Methylsulfonyl)-4-((1-(methylsulfonyl)piperidin-4-yl)methoxy)benzyl)-isoindoline]
CC(=O)[C@H]1CC[C@H](COc2ccc(CN3Cc4ccccc4C3)cc2S(C)(=O)=O)CC1 [Compound 67, 1-((1r,4r)-4-((4-(Isoindolin-2-ylmethyl)-2-(methylsulfonyl)phenoxy)methyl)-cyclohexyl)ethan-1-one]
CN(C)C(=O)c1ccc(COc2ccc(CN3Cc4ccccc4C3)cc2S(C)(=O)=O)cc1 [Compound 68, 4-((4-(Isoindolin-2-ylmethyl)-2-(methylsulfonyl)phenoxy)methyl)-N,N-dimethylbenzamide]
COCCN(C)C(=O)c1ccc(COc2ccc(CN3Cc4ccccc4C3)cc2S(C)(=O)=O)cc1 [Compound 69, 4-((4-(Isoindolin-2-ylmethyl)-2-(methylsulfonyl)phenoxy)methyl)-N-(2-methoxyethyl)-N-methylbenzamide]
CCS(=N)(=O)c1ccc(COc2ccc(CN3Cc4ccccc4C3)cc2S(C)(=O)=O)cc1 (stereo not drawn) [Compound 71, Ethyl(imino)(4-((4-(isoindolin-2-ylmethyl)-2-(methylsulfonyl)phenoxy)methyl)-phenyl)-λ^6-sulfanone]
CS(=N)(=O)c1ccc(COc2ccc(CN3Cc4ccccc4C3)cc2S(C)(=O)=O)cc1 (stereo not drawn) [Compound 72, Imino(4-((4-(isoindolin-2-ylmethyl)-2-(methylsulfonyl)phenoxy)methyl)phenyl)(methyl)-λ^6-sulfanone]
CC(C)C(=O)N1CCC(COc2ccc(CN3Cc4ccccc4C3)cc2S(C)(=O)=O)CC1 [Compound 73, 1-(4-((4-(Isoindolin-2-ylmethyl)-2-(methylsulfonyl)phenoxy)methyl)piperidin-1-yl)-2-methylpropan-1-one]
CN(C)C(=O)C1CCC(COc2ccc(CN3Cc4ccccc4C3)cc2S(C)(=O)=O)CC1 (stereo not drawn) [Compound 74, 4-((4-(Isoindolin-2-ylmethyl)-2-(methylsulfonyl)phenoxy)methyl)-N,N-dimethylcyclohexane-1-carboxamide]
CS(=O)(=O)c1cc(CN2Cc3ccccc3C2)ccc1OCC1CCN(S(=O)(=O)C2COC2)CC1 [Compound 75, 2-(3-(Methylsulfonyl)-4-((1-(oxetan-3-ylsulfonyl)piperidin-4-yl)methoxy)-benzyl)isoindoline]
CCS(=O)(=O)c1ccc(COc2ccc(CN3Cc4ccccc4C3)cc2S(C)(=O)=O)cc1 [Compound 76, 2-(4-((4-(Ethylsulfonyl)benzyl)oxy)-3-(methylsulfonyl)benzyl)isoindoline]
CS(=O)(=O)c1cc(CN2Cc3ccccc3C2)ccc1OCc1ccc(S(=O)(=O)N2CC(O)C2)cc1 [Compound 77, 1-((4-((4-(Isoindolin-2-ylmethyl)-2-(methylsulfonyl)phenoxy)methyl)phenyl)-sulfonyl)azetidin-3-ol]
CS(=O)(=O)c1cc(CN2Cc3ccccc3C2)ccc1OCc1ccc(C(=O)N=S(C)(C)=O)cc1 [Compound 78, N-(Dimethyl(oxo)-λ^6-sulfaneylidene)-4-((4-(isoindolin-2-ylmethyl)-2-(methyl-sulfonyl)phenoxy)methyl)benzamide]
CN(C)C(=O)[C@H]1CC[C@H](COc2ccc(CN3Cc4ccccc4C3)cc2S(C)(=O)=O)CC1 [Compound 79, (1r,4r)-4-((4-(Isoindolin-2-ylmethyl)-2-(methylsulfonyl)phenoxy)methyl)-N,N-dimethylcyclohexane-1-carboxamide]
CS(=O)(=O)c1ccc(COc2ccc(CN3Cc4ccccc4C3)cc2S(C)(=O)=O)cc1 [Compound 82, 2-(3-(Methylsulfonyl)-4-((4-(methylsulfonyl)benzyl)oxy)benzyl)isoindoline]
CS(=N)c1ccc(COc2ccc(CN3Cc4ccccc4C3)cc2S(C)(=O)=O)cc1 (stereo not drawn) [Compound 84, (4-((4-(Isoindolin-2-ylmethyl)-2-(methylsulfonyl)phenoxy)methyl)phenyl)-(methyl)-λ^4-sulfanimine]
CS(=N)(=O)c1ccc(COc2ccc(CN3Cc4ccc(C(F)(F)F)cc4C3)cc2S(C)(=O)=O)cc1 (stereo not drawn) [Compound 85, Imino(methyl)(4-((2-(methylsulfonyl)-4-((5-(trifluoromethyl)isoindolin-2-yl)methyl)phenoxy)methyl)phenyl)-λ^6-sulfanone]
CC(C)(O)c1ccc(COc2ccc(CN3Cc4ccccc4C3)cc2S(C)(=O)=O)cc1 [Compound 86, 2-(4-((4-(Isoindolin-2-ylmethyl)-2-(methylsulfonyl)phenoxy)methyl)phenyl)-propan-2-ol]
